Test results from patent US11020378B2, “Compounds, compositions and methods for treating insulin resistance” (UNIVERSITE PARIS DESCARTES, priority 2017, dated 2021).
Read-outs that look alike come from different tables or passages of the source.

What was measured:
PI3K/Akt pathway = experiment: Luc-Akt-PH/YFP-membrane BRET in HEK293T cells (recruitment of Akt to the membrane); assay type: cell-based; details: for effect on the recruitment of kinase Akt to the membrane: in the absence of the hormone
From the text: To measure the activity of the PI3-kinase pathway by the BRET technique, HEK293T cells are transfected with plasmids allowing, on the one hand, the expression of the PH (Pleckstrin Homology) domain of the Akt protein which has been fused to the luciferase and, on the other hand, a membrane-addressing sequence which has been fused to the YFP protein. When the PH domain of Akt is recruited to the membrane by the PIP3s, an energy transfer between the luciferase that is coupled to the PH domain of Akt and the membrane YFP protein takes place. The measured BRET signal is a control of the production of PIP3s at the membrane and is a reflection of the activation of the PI-3-kinase/Akt pathway in real time on cells.

IR-Grb14 interaction = biological target: T1, IR-Grb14 interaction (Homo sapiens, UniProt P06213); experiment: IR-Luc/Grb14-YFP BRET technique in a cell-free system; assay type: binding; details: for remaining activity at 50 µM / % BRET signal/DMSO control: insulin stimulation (100 nM)
T1 construct: a vector encoding the insulin receptor fused to the luciferase (IR-Luc); made in house; host or cells: HEK293T (transfected); IR-Luc was partially purified on wheat germ lectin sepharose; Grb14-YFP was used as crude lysate
T1 sequence (P06213 763-1382 limits assumed): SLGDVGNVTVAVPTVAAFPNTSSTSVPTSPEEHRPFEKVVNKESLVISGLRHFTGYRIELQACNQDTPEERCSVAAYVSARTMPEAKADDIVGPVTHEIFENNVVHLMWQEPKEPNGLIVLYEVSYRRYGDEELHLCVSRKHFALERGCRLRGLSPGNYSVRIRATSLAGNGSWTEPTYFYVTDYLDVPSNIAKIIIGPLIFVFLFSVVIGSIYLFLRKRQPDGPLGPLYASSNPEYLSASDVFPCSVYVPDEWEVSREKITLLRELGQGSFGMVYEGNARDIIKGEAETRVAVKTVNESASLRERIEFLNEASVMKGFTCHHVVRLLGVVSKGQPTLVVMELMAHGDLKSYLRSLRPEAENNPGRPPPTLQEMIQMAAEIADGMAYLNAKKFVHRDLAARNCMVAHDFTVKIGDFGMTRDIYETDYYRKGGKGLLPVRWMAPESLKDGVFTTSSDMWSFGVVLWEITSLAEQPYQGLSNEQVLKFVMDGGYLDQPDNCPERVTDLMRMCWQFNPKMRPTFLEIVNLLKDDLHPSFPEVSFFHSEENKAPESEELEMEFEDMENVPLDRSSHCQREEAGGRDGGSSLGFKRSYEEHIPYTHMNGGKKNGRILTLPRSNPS
T1 sequence (P06213 28-758 partner limits assumed): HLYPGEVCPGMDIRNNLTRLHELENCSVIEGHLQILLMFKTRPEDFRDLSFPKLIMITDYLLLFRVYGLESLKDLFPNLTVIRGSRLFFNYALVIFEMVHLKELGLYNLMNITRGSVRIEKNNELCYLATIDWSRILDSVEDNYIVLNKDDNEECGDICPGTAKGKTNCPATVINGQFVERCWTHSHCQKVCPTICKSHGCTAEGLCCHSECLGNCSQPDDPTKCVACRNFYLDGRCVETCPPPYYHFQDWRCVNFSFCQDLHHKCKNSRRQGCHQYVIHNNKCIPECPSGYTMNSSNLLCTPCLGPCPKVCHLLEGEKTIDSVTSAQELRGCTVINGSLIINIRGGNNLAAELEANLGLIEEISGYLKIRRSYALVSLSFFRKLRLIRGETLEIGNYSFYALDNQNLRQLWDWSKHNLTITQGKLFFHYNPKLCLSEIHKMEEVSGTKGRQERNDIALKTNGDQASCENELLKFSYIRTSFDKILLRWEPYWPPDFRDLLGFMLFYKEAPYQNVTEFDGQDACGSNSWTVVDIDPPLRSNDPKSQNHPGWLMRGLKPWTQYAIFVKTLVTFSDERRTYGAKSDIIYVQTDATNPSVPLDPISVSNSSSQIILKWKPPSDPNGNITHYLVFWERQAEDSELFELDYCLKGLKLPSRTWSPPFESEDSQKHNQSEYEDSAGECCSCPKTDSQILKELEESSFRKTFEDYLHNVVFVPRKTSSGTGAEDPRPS
Procedure: Compounds according to the invention were experimentally assessed for their inhibitory effect on the IR-Grb14 interaction by a BRET technique in a cell-free system described briefly below.
On the one hand, HEK293T cells were transfected with a vector encoding the insulin receptor fused to the luciferase (IR-Luc). Before lysis, the cells transfected with IR-Luc were stimulated or not with 100 nM insulin for 10 minutes. The IR-Luc lysates were recovered and then purified on sepharose beads coupled with wheat germ lectin (WGL for Wheat Germ Lectin). The IR-Luc receptors were then eluted and then frozen in liquid nitrogen before being stored at −80° C. On the other hand, HEK293T cells were transfected either with a vector encoding the Grb14 protein fused to the YFP (Grb14-YFP), or with the empty plasmid pcDNA3. The cells transfected with Grb14-YFP or with the empty plasmid pcDNA3 were lysed 48 h after transfection. After centrifugation, the lysates are recovered and frozen at −80° C.
The insulin receptors (IR-Luc) partially purified from cells stimulated or not with insulin were incubated for 20 minutes with the inhibitor compounds according to the invention suspended in DMSO. The cellular extracts from cells transfected with Grb14-YFP (or the empty plasmid pcDNA3) were then added and then after 40 minutes of incubation, coelenterazine was added and BRET reading was initiated. The results are expressed as a percentage of the BRET signal obtained in the presence of the molecules tested compared to the BRET signal of the DMSO control.

[1] = system: PEPCK and G6Pase expression; experiment: Expression of neoglucogenesis genes in hepatocytes in primary culture (RT-qPCR); assay type: cell-based, mice; details: 1 nM insulin; glucagon 10 nM
Procedure: FIG. 6, the effect of the compound of Formula (Ia) according to the invention (black bars) on the expression of insulin target genes, PEPCK (FIG. 6A) and G6Pase (FIG. 6B), involved in the neoglucogenesis pathway. Hepatocytes in primary culture are cultured for 8 h in the presence of compounds of Formula (Ia) (50 μM), insulin (1 nM) and glucagon (pre-incubation 1 h at 10 nM). The relative quantification of mRNAs is performed by RT-qPCR. The values are related to the quantification of the 18S gene in the same sample in order to normalize the results. The results are the average of 3 to 5 independent experiments (*p<0.05, **p<0.01, by Anova followed by a Newman-Keuls test).
To study the inhibitory effect of insulin on neoglucogenesis gene expression, hepatocytes from mice in primary culture were pre-incubated with 10 nM glucagon.

[2] = read-out: % BRET signal/DMSO control, 50 μM
[3] = in the presence of insulin (5 nM)

Molecule: O=C1NC(=S)NC(=O)C1=Cc1ccc(OCc2cccc(C(=O)O)c2)cc1 [IId]
- BRET delta (PI3K/Akt pathway; without insulin): 67 (+/−33)
- remaining activity at 50 µM (IR-Grb14 interaction; [2]): 69%

Molecule: CCOc1cc(C=C2C(=O)NC(=O)NC2=O)ccc1OCc1cccc(C(=O)O)c1 [Comparative B]
- significant decrease in the BRET signal / reduction in the IR-Grb14 interaction (in words) (IR-Grb14 interaction; 50 μM): do not allow for a significant decrease
- % BRET signal/DMSO control (IR-Grb14 interaction; 50 μM): 93% (+/−7%)

Molecule: CCOc1cc(C=C2C(=O)NC(=O)NC2=O)ccc1OCc1cccc(C(=O)O)c1 [Comparative F]
- significant decrease in the BRET signal / reduction in the IR-Grb14 interaction (in words) (IR-Grb14 interaction; 50 μM): do not allow for a significant decrease
- % BRET signal/DMSO control (IR-Grb14 interaction; 50 μM): 93% (+/−24%)

Molecule: CCOc1cc(C=C2C(=O)NC(=O)NC2=O)ccc1OCc1cccc(C(=O)O)c1 [Comparative C]
- significant decrease in the BRET signal / reduction in the IR-Grb14 interaction (in words) (IR-Grb14 interaction; 50 μM): do not allow for a significant decrease
- % BRET signal/DMSO control (IR-Grb14 interaction; 50 μM): 103% (+/−8%)

Molecule: CCOc1cc(C=C2C(=O)NC(=O)NC2=O)ccc1OCc1cccc(C(=O)O)c1 [Comparative D]
- significant decrease in the BRET signal / reduction in the IR-Grb14 interaction (in words) (IR-Grb14 interaction; 50 μM): do not allow for a significant decrease
- % BRET signal/DMSO control (IR-Grb14 interaction; 50 μM): 121% (+/−8%)

Molecule: Cc1ccc(/C=C/C(=O)O)o1 [Comparative IVa, (E)-3-(5-methylfuran-2-yl)acrylic acid, reference compound]
- effect on the recruitment of kinase Akt to the membrane (PI3K/Akt pathway): no effect
- BRET delta (PI3K/Akt pathway; [3]): −61 (+/−35)
- reduction of the recruitment of the Akt protein to the membrane (PI3K/Akt pathway; [3]): about 50%
- significant decrease in the BRET signal / reduction in the IR-Grb14 interaction (in words) (IR-Grb14 interaction; 50 μM): do not allow for a reduction
- remaining activity at 50 µM (IR-Grb14 interaction; [2]): 91%

Molecule: CC(C)(C)c1cc(C=C(C#N)C#N)cc(Br)c1O [AG1024, reference compound]
- BRET signal after inhibition of tyrosine kinase activity of the insulin receptor (PI3K/Akt pathway; pre-incubation 1 h with 25 μM): very significant drop

Molecule: CCc1ccc(/C=C/C(=O)Nc2ccc(S(=O)(=O)Nc3onc(C)c3C)cc2)o1 [Ib]
- BRET delta (PI3K/Akt pathway; without insulin): 119 (+/−26)
- remaining activity at 50 µM (IR-Grb14 interaction; 50 μM, read-out: % BRET signal/DMSO control): 58%

Molecule: CCOc1cc(C=C2C(=O)NC(=O)NC2=O)ccc1OCc1cccc(C(=O)O)c1 [Comparative A]
- significant decrease in the BRET signal / reduction in the IR-Grb14 interaction (in words) (IR-Grb14 interaction; 50 μM): do not allow for a significant decrease
- % BRET signal/DMSO control (IR-Grb14 interaction; 50 μM): 103% (+/−15%)

Molecule: Cc1noc(NS(=O)(=O)c2ccc(N)cc2)c1C [Comparative Va, 4-amino-N-(3,4-dimethyl-1,2-oxazol-5-yl)benzenesulfonamide, reference compound]
- effect on the recruitment of kinase Akt to the membrane (PI3K/Akt pathway): no effect
- BRET delta (PI3K/Akt pathway; [3]): −27 (+/−23)
- effect on the production of PIP3s at the membrane (PI3K/Akt pathway; [3]): no effect
- significant decrease in the BRET signal / reduction in the IR-Grb14 interaction (in words) (IR-Grb14 interaction; 50 μM): do not allow for a reduction
- remaining activity at 50 µM (IR-Grb14 interaction; [2]): 98%

Molecule: CCOc1ccc(/C=C2/C(=O)NC(=S)N(c3ccccc3)C2=O)cc1C(=O)O [IIf]
- BRET delta (PI3K/Akt pathway; without insulin): 54 (+/−44)
- remaining activity at 50 µM (IR-Grb14 interaction; [2]): 65%

Molecule: CCOc1cc(C=C2C(=O)NC(=S)NC2=O)ccc1OCc1ccc(C(=O)O)cc1 [IIe]
- BRET delta (PI3K/Akt pathway; without insulin): 96 (+/−50)
- remaining activity at 50 µM (IR-Grb14 interaction; [2]): 65%

Molecule: COc1cc(C=C2C(=O)NC(=S)NC2=O)ccc1OCc1cccc(C(=O)O)c1 [IIc]
- decrease in the BRET signal between the insulin receptor and the Grb14 protein (IR-Grb14 interaction; 50 μM, with insulin stimulation): 25%
- remaining activity at 50 µM (IR-Grb14 interaction; [2]): 75%

Molecule: CCOc1cc(C=C2C(=O)NC(=O)NC2=O)ccc1OCc1cccc(C(=O)O)c1 [Comparative E]
- significant decrease in the BRET signal / reduction in the IR-Grb14 interaction (in words) (IR-Grb14 interaction; 50 μM): do not allow for a significant decrease
- % BRET signal/DMSO control (IR-Grb14 interaction; 50 μM): 98% (+/−9%)

Molecule: insulin
- inhibition of glucagon-induced G6Pase expression [1]: 60 to 70%
- inhibition of glucagon-induced PEPCK expression [1]: 60 to 70%
- effect on the recruitment of the Akt protein to the membrane after AG1024 (PI3K/Akt pathway; cells pre-incubated 1 h with 25 μM AG1024, Ia 50 μM, insulin 5 nM): no longer have any effect
- BRET delta (PI3K/Akt pathway; insulin 5 nM alone): about 100
